Biological target: T1, GBA2 (Homo sapiens, UniProt Q9HCG7)
T1 construct: expressed in transfected cells; host or cells: HEK293T (GBA/GBA2 KO background for the fluorogenic assay; endogenous-GBA background with GBA2 and GBA3 overexpressed for ABPP and intact-cell assays)
T1 sequence (Q9HCG7 1-927): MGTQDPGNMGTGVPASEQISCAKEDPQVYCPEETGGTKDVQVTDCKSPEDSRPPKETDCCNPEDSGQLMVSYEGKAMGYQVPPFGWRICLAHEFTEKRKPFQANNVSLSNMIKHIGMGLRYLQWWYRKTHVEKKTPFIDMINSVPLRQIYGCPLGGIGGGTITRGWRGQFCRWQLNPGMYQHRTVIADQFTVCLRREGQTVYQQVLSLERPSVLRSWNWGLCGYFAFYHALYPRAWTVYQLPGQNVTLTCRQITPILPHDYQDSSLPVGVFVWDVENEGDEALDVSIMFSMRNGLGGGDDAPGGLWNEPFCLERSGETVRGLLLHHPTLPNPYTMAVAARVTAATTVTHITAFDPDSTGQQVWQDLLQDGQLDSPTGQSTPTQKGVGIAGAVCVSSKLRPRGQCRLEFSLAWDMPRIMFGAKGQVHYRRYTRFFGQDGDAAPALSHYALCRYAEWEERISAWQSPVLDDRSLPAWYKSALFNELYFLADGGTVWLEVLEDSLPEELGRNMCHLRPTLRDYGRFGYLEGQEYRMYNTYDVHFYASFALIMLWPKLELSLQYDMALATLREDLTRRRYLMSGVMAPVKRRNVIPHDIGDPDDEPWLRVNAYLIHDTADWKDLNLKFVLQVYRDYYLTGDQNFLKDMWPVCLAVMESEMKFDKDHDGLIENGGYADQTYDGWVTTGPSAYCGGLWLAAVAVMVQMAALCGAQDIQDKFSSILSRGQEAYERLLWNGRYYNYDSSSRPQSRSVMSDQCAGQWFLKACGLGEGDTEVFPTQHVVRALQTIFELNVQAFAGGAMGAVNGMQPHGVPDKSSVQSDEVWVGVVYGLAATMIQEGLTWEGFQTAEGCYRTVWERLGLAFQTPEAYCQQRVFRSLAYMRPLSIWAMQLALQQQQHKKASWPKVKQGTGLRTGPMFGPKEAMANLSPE
Assay: Inhibition in intact HEK293T cells (24 h), read out by cABPP with ABP 10, GBA2
Type: cell-based
Conditions: for IC50: 24 h treatment, cABPP quantification, n=3; for GBA2/GBA ratio, intact cells: IC50 ratio, 24 h
Text: We next examined the activity of 1 and 2 towards the three human β‐D‐glucosidase in intact HEK293T cells. […] It is noted that the GBA‐selectivity of both compounds is much improved in intact cells than in the in vitro system (Figure 2 and Table 1). This is especially true for compound 1, where an impressive 4‐logs of selectivity window is observed.
Figure 5 Inhibitory effect of β‐D‐xylo‐configured cyclophellitol 1 and cyclophellitol aziridine 2 on β‐glucosidases in intact HEK293T cells expressing GBA, GBA2 and GBA3. (A) Representative gel images of cABPP where cells were treated for 24 h with indicated inhibitor. Lysates were then prepared and labeled with fluorescent ABP 10. Fluorescently labeled proteins were visualized after SDS‐PAGE (1 set from n=3 replicates). (B) IC50 curves determined by cABPP labeling results. (C) Apparent IC50 values towards β‐glucosidases in intact HEK293T cells producing GBA, GBA2 and GBA3 were determined by the fluorescence quantification based on cABPP SDS‐PAGE results.
ABP labeling procedure: Glycosidases were labeled with excess fluorescent ABPs at optimum conditions. ABP labeling was performed at 37 °C for 30 min for all materials (if not otherwise stated), in a total sample volume of 20–40 μL and 0.5–1 % DMSO concentration. GBA was labeled with 200 nM ABP 9 (pH 5.2, 0.1 % (v/v) Triton‐100, 0.2 % (w/v) sodium taurocholate), or labeled together with GBA2 using 200 nM β‐D‐glucose‐configured aziridine ABP 10 at pH 5.8, or labeling together with GBA2 and GBA3 using 200 nM β‐D‐glucose‐configured aziridine ABP 10 at pH 6.0. After ABP incubation, proteins were denatured by boiling the samples with 5× Laemmli buffer (50 % (v/v) 1 M Tris‐HCl, pH 6.8, 50 % (v/v) 100 % glycerol, 10 % (w/v) DTT, 10 % (w/v) SDS, 0.01 % (w/v) bromophenol blue) for 5 min at 98 °C, and separated by electrophoresis on 10 % (w/v) SDS‐PAGE gels running continuously at 90 V. Wet slab‐gels were scanned on fluorescence using the Typhoon FLA 9500 (GE Healthcare) at λEX 473 nm and λEM≥510 nm for green fluorescent ABP 8; and at λEX 635 nm and λEM≥665 nm for ABP 6, 9 and 10. ABP‐emitted fluorescence was quantified using ImageQuant software (GE Healthcare, Chicago, IL, USA) and curve‐fitted using Prism 8.0 (GraphPad Software). After fluorescence scanning, SDS‐PAGE gels were stained for total protein with Coomassie G250 and scanned on a ChemiDoc MP imager (Bio‐Rad, Hercules, CA, USA).[25]
Assessment of inhibitor activity in cultured cells: Confluent HEK293T stably expressing human GBA and GBA2 GBA3 overexpressing were cultured in 24‐well plates in triplicates with(out) inhibitors for 24 h at 37 °C with 7 % CO2. […]

Structure (SMILES) | IC50 | GBA2/GBA ratio, intact cells
O[C@@H]1[C@@H](O)[C@H](O)C[C@H]2O[C@@H]12 [compound 1, xylo‐cyclophellitol] | > 100 µM | > 10000
O[C@@H]1[C@@H](O)[C@H](O)C[C@H]2N[C@@H]12 [compound 2, β‐D‐xylo‐Cyclophellitol aziridine] | 10.4 ± 1.53 µM | 247

Reference: publication PMC8596838, “Xylose‐Configured Cyclophellitols as Selective Inhibitors for Glucocerebrosidase” (Chembiochem, 2021)
